Assay results: ChEMBL document CHEMBL4130363, “Synthesis and pharmacological evaluation of benzamide derivatives as potent and selective sigma-1 protein ligands” (Eur J Med Chem, 2017)

Tests used:
SH-SY5Y = experiment: Cytotoxicity against human SH-SY5Y cells assessed as reduction in cell viability after 72 hrs by MTT assay; type: cell-based
S1R (sigma-1 receptor) = experiment: Selectivity index, ratio of IC50 for human SH-SY5Y cells to Ki for S1R in human Jurkat cell membranes; type: toxicity, cell-based
[1] = target: T1, Muscarinic acetylcholine receptor M1 (Homo sapiens) (UniProt P11229); experiment: Agonist activity at recombinant human muscarinic M1 receptor at 10 uM by aequorin reporter based assay relative to agonist; type: functional
T1 sequence (whole entry): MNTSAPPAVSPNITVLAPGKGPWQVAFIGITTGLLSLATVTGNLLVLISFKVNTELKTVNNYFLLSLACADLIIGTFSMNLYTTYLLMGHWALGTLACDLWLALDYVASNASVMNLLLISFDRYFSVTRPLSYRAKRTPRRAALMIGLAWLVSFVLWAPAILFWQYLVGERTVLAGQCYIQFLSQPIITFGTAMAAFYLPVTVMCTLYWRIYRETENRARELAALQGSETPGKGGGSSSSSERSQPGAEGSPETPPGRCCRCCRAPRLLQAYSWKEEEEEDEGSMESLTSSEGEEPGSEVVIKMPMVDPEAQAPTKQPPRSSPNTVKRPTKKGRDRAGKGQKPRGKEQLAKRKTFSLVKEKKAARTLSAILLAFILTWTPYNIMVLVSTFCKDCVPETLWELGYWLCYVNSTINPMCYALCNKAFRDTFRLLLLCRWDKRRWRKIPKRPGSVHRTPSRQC

[2] = target: Muscarinic acetylcholine receptor M3 (Homo sapiens) (UniProt P20309); experiment: Antagonist activity at recombinant human muscarinic M3 receptor assessed as inhibition of agonist-induced effect at 10 uM by aequorin reporter based assay; type: functional
Sequence of Muscarinic acetylcholine receptor M3 (Homo sapiens) (P20309 whole entry, looked up): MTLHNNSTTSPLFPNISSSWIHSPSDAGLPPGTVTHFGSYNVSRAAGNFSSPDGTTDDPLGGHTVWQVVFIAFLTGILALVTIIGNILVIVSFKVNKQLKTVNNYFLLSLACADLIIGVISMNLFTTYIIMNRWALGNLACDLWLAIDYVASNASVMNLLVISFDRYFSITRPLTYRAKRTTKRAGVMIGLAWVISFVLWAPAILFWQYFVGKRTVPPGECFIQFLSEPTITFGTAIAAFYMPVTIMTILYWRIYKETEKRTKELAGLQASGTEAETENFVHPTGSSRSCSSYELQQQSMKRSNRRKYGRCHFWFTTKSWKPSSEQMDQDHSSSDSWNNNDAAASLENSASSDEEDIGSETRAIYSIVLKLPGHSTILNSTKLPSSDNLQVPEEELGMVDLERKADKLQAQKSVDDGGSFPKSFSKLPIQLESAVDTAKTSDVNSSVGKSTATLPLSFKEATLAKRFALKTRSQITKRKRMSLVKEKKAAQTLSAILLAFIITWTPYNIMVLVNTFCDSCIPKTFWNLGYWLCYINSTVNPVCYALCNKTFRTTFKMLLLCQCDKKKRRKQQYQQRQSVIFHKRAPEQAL

[3] = target: T2, 5-hydroxytryptamine receptor 1A (Homo sapiens) (UniProt P08908); experiment: Agonist activity at recombinant human 5-HT1A assessed as induction of cAMP levels at 10 uM by HTRF assay relative to agonist; type: functional
T2 sequence (whole entry): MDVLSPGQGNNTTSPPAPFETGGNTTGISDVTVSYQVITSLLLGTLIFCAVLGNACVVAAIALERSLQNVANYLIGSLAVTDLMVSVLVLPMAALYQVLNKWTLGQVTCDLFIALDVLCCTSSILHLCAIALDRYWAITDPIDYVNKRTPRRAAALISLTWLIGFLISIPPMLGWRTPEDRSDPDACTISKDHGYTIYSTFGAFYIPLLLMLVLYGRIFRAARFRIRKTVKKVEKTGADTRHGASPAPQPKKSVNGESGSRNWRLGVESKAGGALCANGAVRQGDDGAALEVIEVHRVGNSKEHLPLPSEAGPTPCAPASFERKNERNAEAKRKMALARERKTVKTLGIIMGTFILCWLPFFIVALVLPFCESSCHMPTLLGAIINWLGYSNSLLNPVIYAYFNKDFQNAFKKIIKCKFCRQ

[4] = target: T3, Type-1 angiotensin II receptor (Homo sapiens) (UniProt P30556); experiment: Antagonist activity at recombinant human AT1 receptor assessed as inhibition of agonist-induced […] reporter based assay; type: functional
T3 sequence (whole entry): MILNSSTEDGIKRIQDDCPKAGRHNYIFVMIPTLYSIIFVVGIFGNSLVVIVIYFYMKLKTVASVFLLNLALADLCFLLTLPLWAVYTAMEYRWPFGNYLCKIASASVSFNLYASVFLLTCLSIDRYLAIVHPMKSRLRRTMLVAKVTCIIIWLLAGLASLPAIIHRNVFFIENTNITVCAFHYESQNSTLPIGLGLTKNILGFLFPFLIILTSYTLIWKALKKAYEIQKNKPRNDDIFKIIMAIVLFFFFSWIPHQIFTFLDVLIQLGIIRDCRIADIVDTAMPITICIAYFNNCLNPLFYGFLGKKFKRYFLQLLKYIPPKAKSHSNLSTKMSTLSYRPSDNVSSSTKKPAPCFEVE

[5] = target: T4, Adenosine receptor A3 (Homo sapiens) (UniProt P0DMS8); experiment: Antagonist activity at recombinant human adenosine A3 receptor assessed as inhibition of agonist-induced cAMP induction at 10 uM by HTRF assay; type: functional
T4 sequence (whole entry): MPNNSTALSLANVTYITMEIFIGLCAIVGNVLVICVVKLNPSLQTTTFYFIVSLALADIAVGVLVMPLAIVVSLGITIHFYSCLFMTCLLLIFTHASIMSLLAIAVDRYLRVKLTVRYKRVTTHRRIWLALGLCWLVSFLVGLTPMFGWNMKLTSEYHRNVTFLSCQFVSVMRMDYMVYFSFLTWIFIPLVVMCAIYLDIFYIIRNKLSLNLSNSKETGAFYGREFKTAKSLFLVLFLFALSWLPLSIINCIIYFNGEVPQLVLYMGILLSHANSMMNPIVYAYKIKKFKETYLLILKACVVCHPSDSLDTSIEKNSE

[6] = target: Muscarinic acetylcholine receptor M3 (Homo sapiens) (UniProt P20309); experiment: Agonist activity at recombinant human muscarinic M3 receptor at 10 uM by aequorin reporter based assay relative to agonist; type: functional
[7] = target: Vasopressin V1a receptor (Homo sapiens) (UniProt P37288); experiment: Antagonist activity at recombinant human V1A receptor assessed as inhibition of agonist-induced effect at 10 uM by aequorin reporter based assay; type: functional
Sequence of Vasopressin V1a receptor (Homo sapiens) (P37288 whole entry, looked up): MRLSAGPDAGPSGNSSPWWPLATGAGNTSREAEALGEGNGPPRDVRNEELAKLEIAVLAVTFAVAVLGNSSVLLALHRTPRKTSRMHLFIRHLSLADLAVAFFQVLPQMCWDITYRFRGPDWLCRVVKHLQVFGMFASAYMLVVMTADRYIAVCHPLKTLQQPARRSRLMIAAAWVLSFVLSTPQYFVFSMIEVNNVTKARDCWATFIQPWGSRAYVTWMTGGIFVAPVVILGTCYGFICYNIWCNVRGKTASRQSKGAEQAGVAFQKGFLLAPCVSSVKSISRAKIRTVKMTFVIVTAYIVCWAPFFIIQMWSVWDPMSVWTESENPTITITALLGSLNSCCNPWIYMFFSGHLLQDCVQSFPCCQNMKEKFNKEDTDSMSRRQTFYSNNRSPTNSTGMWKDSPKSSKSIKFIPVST

[8] = target: 5-hydroxytryptamine receptor 5A (Homo sapiens) (UniProt P47898); experiment: Antagonist activity at recombinant human 5-HT5A assessed as inhibition of agonist-induced effect at 10 uM by aequorin reporter based assay; type: functional
Sequence of 5-hydroxytryptamine receptor 5A (Homo sapiens) (P47898 whole entry): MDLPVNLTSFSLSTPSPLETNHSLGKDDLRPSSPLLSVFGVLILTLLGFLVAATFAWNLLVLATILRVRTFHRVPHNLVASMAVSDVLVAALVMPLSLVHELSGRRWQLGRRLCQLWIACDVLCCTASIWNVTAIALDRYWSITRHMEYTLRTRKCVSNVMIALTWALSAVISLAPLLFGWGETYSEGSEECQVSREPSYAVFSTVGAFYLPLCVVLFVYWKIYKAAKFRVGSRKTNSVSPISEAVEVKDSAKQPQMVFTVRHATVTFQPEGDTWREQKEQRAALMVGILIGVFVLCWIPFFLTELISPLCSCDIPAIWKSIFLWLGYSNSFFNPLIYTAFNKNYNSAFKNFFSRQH

[9] = target: Glutamate [NMDA] receptor (Homo sapiens) (UniProt Q05586+Q12879+Q13224+O15399+O60391+Q14957+Q8TCU5); experiment: Antagonist activity at recombinant human NMDA receptor assessed as inhibition of agonist-induced cAMP levels at 10 uM; type: protein-complex assay
[10] = target: Delta-type opioid receptor (Homo sapiens) (UniProt P41143); experiment: Antagonist activity at human delta-type opioid receptor assessed as inhibition of agonist-induced effect at 10 uM by GTPgamma[35S] binding-based assay; type: functional
Sequence of Delta-type opioid receptor (Homo sapiens) (P41143 whole entry): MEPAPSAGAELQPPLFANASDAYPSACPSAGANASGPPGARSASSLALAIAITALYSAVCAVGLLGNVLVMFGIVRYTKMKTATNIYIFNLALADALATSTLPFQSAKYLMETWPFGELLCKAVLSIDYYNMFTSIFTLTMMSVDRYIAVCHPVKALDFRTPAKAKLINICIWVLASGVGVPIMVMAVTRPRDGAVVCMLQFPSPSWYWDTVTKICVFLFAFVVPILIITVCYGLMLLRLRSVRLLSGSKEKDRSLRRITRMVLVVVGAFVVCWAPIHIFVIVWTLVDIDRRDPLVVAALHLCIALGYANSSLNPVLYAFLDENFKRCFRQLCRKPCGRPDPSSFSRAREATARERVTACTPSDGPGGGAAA

[11] = target: Beta-2 adrenergic receptor (Homo sapiens) (UniProt P07550); experiment: Agonist activity at recombinant human beta-2 adrenergic receptor assessed as induction of cAMP levels at 10 uM by HTRF assay relative to agonist; type: functional
Sequence of Beta-2 adrenergic receptor (Homo sapiens) (P07550 whole entry, looked up): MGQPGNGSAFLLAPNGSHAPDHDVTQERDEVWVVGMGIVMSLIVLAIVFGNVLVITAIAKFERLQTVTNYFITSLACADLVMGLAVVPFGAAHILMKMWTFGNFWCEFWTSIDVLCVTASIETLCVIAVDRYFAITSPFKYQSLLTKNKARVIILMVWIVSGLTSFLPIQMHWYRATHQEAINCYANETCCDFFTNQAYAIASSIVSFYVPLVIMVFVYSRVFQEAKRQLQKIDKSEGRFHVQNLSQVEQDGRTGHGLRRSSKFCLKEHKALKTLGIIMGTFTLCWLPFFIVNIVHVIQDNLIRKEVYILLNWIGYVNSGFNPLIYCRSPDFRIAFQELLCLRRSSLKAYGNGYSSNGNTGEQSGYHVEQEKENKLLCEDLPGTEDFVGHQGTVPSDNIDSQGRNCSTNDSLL

Structure (SMILES)	Activity [1]	inhibition [2]	Activity [3]	inhibition [4]	inhibition [5]	Activity [6]	inhibition [7]	inhibition [8]	inhibition [9]	inhibition [10]	Activity [11]	IC50 (SH-SY5Y)	selectivity ratio (S1R (sigma-1 receptor))
CN(CCNC(=O)c1ccc(C#N)cc1)Cc1ccccc1	0%	17%	4%		-6%	0%	9%	28%	1%	0%	0%	> 100 µM	> 83300
CN(CCCNC(=O)c1cccc(Br)c1)Cc1ccccc1	0%	43%	-4%	7%		-2%	14%	23%	5%	7%	1%	> 100 µM	> 25600
COc1cccc(C(=O)NCCCN(C)Cc2ccccc2)c1	0%	2%	0%	20%		0%	3%	16%	0%		8%		
CN(CCNC(=O)c1ccc([N+](=O)[O-])cc1)Cc1ccccc1	0%	21%	4%		5%	0%	6%	36%	3%	8%	3%	> 100 µM	> 27800
CN(CCCNC(=O)c1ccc(C(F)(F)F)cc1)Cc1ccccc1	-1%	36%	-5%	-2%	18%	-2%	6%	14%	14%		1%		
CCCc1ccc(C(=O)NCCCN(C)Cc2ccccc2)cc1	0%	41%	-4%	-6%	8%	-2%	11%	13%	15%	-5%	6%		
CN(CCCNC(=O)c1ccc([N+](=O)[O-])cc1)Cc1ccccc1	0%	30%	-1%	17%	-7%	-2%	6%	17%	12%	5%	-2%		

More lines, main results first:

Activity [1]	inhibition [2]	Activity [3]	inhibition [4]	inhibition [5]	Activity [6]	inhibition [7]	inhibition [8]	inhibition [9]	inhibition [10]	Activity [11]	Structure (SMILES)	IC50 (SH-SY5Y)	selectivity ratio (S1R (sigma-1 receptor))
0%	40%	32%	11%	10%	-1%	36%	40%	16%	6%	2%	CN(CCCNC(=O)c1ccc(Cl)cc1)CCc1ccccc1	> 100 µM	> 23300
0%	35%	3%	21%	-1%	0%	18%	22%	4%	18%	0%	CN(CCNC(=O)c1ccc(Cl)cc1)Cc1ccccc1	> 100 µM	> 27800
0%	11%	0%		24%	1%	0%	8%	5%	-5%	2%	CN(CCCNC(=O)c1ccc(Br)cc1)Cc1ccccc1		
0%	0%	-2%	-10%	12%	1%	-9%	16%		-2%	8%	COc1ccc(C(=O)NCCCN(C)Cc2ccccc2)cc1		
0%	23%	3%	-3%	16%	2%		17%	8%	9%	1%	CN(CCCNC(=O)c1ccc(Cl)cc1)Cc1ccccc1	> 100 µM	> 31200
